# Source: patent publication US20040024024A1, “Aromatic sulfone hydroxamates and their use as protease inhibitors” (priority 2001, published 2004)
# pIC50: −log10 of the molar value. Structures can show the parent of a compound that is named as a salt.
# What was measured:
# Human recombinant MMP-13 = molecular target: T1, Human recombinant MMP-13 (Homo sapiens, UniProt P45452); test: In vitro MMP inhibition, IC50 determination (fluorogenic substrate I); assay type: biochemical
# T1 construct: made in house; host or cells: baculovirus / insect cells
# Procedure, shortened: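 Fluorescence at 415 nm (excitation 328 nm) reports Gly-Leu cleavage of 4 μM quenched methoxycoumarin peptide substrate I. Human recombinant MMP-13, activated by trypsin or APMA, was incubated at room temperature with varied inhibitor concentrations in pH 7.5 Tris/NaCl/CaCl2 buffer; IC50 derived from reduced fluorescence.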
# Human recombinant MMP-2 = molecular target: T2, Human recombinant MMP-2 (Homo sapiens, UniProt P08253); test: as above; assay type: biochemical
# T2 construct: made in house; host or cells: MMP-2-transfected p2AHT2 cells
# T2 sequence (P08253 110-660): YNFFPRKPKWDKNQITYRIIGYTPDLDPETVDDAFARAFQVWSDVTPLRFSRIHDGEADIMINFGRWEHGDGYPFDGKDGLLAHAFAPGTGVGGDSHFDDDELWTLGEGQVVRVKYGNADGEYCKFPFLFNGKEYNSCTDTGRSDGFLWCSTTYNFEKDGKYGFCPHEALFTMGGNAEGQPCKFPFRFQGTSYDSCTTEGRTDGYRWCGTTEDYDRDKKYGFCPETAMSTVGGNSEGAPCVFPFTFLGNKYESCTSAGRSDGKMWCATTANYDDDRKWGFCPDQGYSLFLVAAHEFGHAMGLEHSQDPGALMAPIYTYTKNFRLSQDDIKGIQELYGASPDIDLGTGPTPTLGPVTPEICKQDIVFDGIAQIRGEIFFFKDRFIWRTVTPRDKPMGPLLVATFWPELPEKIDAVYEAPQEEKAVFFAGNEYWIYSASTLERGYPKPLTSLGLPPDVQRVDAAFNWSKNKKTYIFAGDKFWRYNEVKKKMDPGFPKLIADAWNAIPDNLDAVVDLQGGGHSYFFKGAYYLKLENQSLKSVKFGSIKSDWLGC
# Procedure, shortened: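 APMA- or trypsin-activated recombinant MMP-2 was incubated at room temperature with serial inhibitor dilutions in Tris buffer pH 7.5 (100 mM NaCl, 10 mM CaCl2, 0.05% Brij), with DMSO from 1% stocks, and 4 μM substrate I. Cleavage was read by fluorescence at 328/415 nm; IC50 was taken from the loss of fluorescence versus inhibitor concentration.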
# [1] = substrate (I) 4 μM, room temperature, values not in parenthesis
Compound,pIC50 (Human recombinant MMP-13; [1]),pIC50 (Human recombinant MMP-2; [1]),pIC50 (Human recombinant MMP-13; value outside parenthesis),pIC50 (Human recombinant MMP-2; value outside parenthesis)
"O=C(NO)C1(S(=O)(=O)c2ccc(OCCCc3nc(-c4ccc(OC(F)(F)F)cc4)no3)cc2)CCOCC1 [Example 31, tetrahydro-N-hydroxy-4-[[4-[3-[3[4-(trifluoromethoxy)phenyl]-1,2,4-oxadiazol-5-yl]propoxy]phenyl]sulfonyl]-2H-pyran-4-carboxamide]",8.68,6.46,–,–
O=C(NO)C1(S(=O)(=O)c2ccc(OCCCc3cccc(-c4ccc(F)cc4)c3)cc2)CCOCC1 [Example 39],9.05,5.89,–,–
O=C(NO)C1(S(=O)(=O)c2ccc(OCCc3cccc(-c4ccccn4)c3)cc2)CCOCC1 [Example 40],9.30,6.95,–,–
"CCN1CCC(C(=O)NO)(S(=O)(=O)c2ccc(OCCCc3nc(-c4ccc(OC(F)(F)F)cc4)no3)cc2)CC1 [Example 41, 1-ethyl-N-hydroxy 4-{[4-(3-{3-[4-(trifluoromethoxy)phenyl]-1,2,4-oxadiazol-5-yl}propoxy)phenyl]sulfonyl}piperidine-4-carboxamide Hydrochloride]",8.70,6.45,–,–
COCCN1CCC(C(=O)NO)(S(=O)(=O)c2ccc(OCCCc3nc(-c4ccc(OC(F)(F)F)cc4)no3)cc2)CC1 [Example 42],9.52,7.00,–,–
CCN1CCC(C(=O)NO)(S(=O)(=O)c2ccc(OCCCc3cccc(-c4ccccc4)c3)cc2)CC1 [Example 46],8.51,6.49,–,–
"COCCN1CCC(C(=O)NO)(S(=O)(=O)c2ccc(OCCCc3cc(-c4ccc(F)cc4F)cs3)cc2)CC1 [Example 47, 4-[(4-{3-[4-(2,4-difluorophenyl)thien-2-l]propoxy}phenyl)sulfonyl]-N-hydroxy-1-(2-methoxyethyl)piperidine-4-carboxamide Hydrochloride]",9.70,7.74,–,–
COCCN1CCC(C(=O)NO)(S(=O)(=O)c2ccc(OCCCn3nnc(-c4ccc(OC(F)(F)F)cc4)n3)cc2)CC1 [Example 48],9.70,6.98,–,–
O=C(NO)C1(S(=O)(=O)c2ccc(OCCCn3nnc(-c4ccc(OC(F)(F)F)cc4)n3)cc2)CCN(C2CC2)CC1 [Example 49],9.52,6.56,–,–
"O=C(NO)C1(S(=O)(=O)c2ccc(OCCCc3nc(-c4ccc(OC(F)(F)F)cc4)no3)cc2)CCN(C2CC2)CC1 [Example 51, 1-cyclopropyl-N-hydroxy-4-{[4-(3-{3-[4-(trifluoromethoxy)phenyl]-1,2,4-oxadiazol-5-yl}propoxy)phenyl]sulfonyl}piperidine-4-carboxamide Hydrochloride]",9.70,6.60,–,–
O=C(NO)C1(S(=O)(=O)c2ccc(OCCCn3nnc(-c4ccc(OC(F)(F)F)cc4)n3)cc2)CCN(CC2CC2)CC1 [Example 53],9.00,6.42,–,–
NC(=O)c1cccc(OCCOc2ccc(S(=O)(=O)C3(C(=O)NO)CCOCC3)cc2)c1 [Example 54],7.98,7.45,–,–
CC(C)C(=O)c1cccc(CCCOc2ccc(S(=O)(=O)C3(C(=O)NO)CCOCC3)cc2)c1 [Example 95],–,–,8.57,7.04
O=C(NO)C1(S(=O)(=O)c2ccc(OCCCc3cccc(-c4ccco4)c3)cc2)CCOCC1 [Example 97],–,–,8.48,6.73
O=C(NO)C1(S(=O)(=O)c2ccc(OCCCc3cccc(Cc4ccccc4)c3)cc2)CCOCC1 [Example 98],–,–,8.74,6.50
O=C(NO)C1(S(=O)(=O)c2ccc(OCCc3cccc(-c4ccncc4)c3)cc2)CCOCC1 [Example 113],–,–,9.70,7.69
O=C(NO)C1(S(=O)(=O)c2ccc(OCCc3cccc(-c4ccccc4F)c3)cc2)CCOCC1 [Example 115],–,–,9.05,6.51
O=C(NO)C1(S(=O)(=O)c2ccc(OCCc3cccc(-c4ccc(F)cc4)c3)cc2)CCOCC1 [Example 123],–,–,8.85,6.42
O=C(NO)C1(S(=O)(=O)c2ccc(OCCc3cccc(-c4cccnc4)c3)cc2)CCOCC1 [Example 125],–,–,9.70,7.56
Cc1ccc(-c2cccc(CCOc3ccc(S(=O)(=O)C4(C(=O)NO)CCOCC4)cc3)c2)cc1 [Example 127],–,–,8.26,5.86

Compound,pIC50 (Human recombinant MMP-13; [1]),pIC50 (Human recombinant MMP-2; [1]),pIC50 (Human recombinant MMP-13; value outside parenthesis),pIC50 (Human recombinant MMP-2; value outside parenthesis)
O=C(NO)C1(S(=O)(=O)c2ccc(OCCCc3cccc(-c4ccc(F)cc4)c3)cc2)CCN(C2CC2)CC1 [Example 139],–,–,9.40,6.68
COCCN1CCC(C(=O)NO)(S(=O)(=O)c2ccc(OCCCc3cccc(-c4ccc(F)cc4)c3)cc2)CC1 [Example 140],–,–,9.30,7.32
O=C1Nc2ccc(-c3noc(CCCOc4ccc(S(=O)(=O)C5(C(=O)NO)CCN(C6CC6)CC5)cc4)n3)cc21 [Example 142],–,–,8.12,7.23
O=C(NO)C1(S(=O)(=O)c2ccc(OCCCc3cccc(-c4ccc(OC(F)(F)F)cc4)c3)cc2)CCOCC1 [Example 147],–,–,7.55,5.32
O=C(NO)C1(S(=O)(=O)c2ccc(OCCCc3cccc(-c4ccccn4)c3)cc2)CCOCC1 [Example 148],–,–,8.51,6.57
O=C(NO)C1(S(=O)(=O)c2ccc(OCCCc3cccc(-c4ccncc4)c3)cc2)CCOCC1 [Example 149],–,–,8.89,7.11
O=C(NO)C1(S(=O)(=O)c2ccc(OCCCc3cccc(-c4cccnc4)c3)cc2)CCOCC1 [Example 150],–,–,9.22,6.87
COCCN1CCC(C(=O)NO)(S(=O)(=O)c2ccc(OCCCc3nc(-c4ccccc4OC(F)(F)F)no3)cc2)CC1 [Example 152],–,–,7.93,7.23
O=C(NO)C1(S(=O)(=O)c2ccc(OCCCc3cccc(Br)c3)cc2)CCOCC1 [Example 154],–,–,9.10,7.96
CCc1ccccc1-c1noc(CCCOc2ccc(S(=O)(=O)C3(C(=O)NO)CCN(CCOC)CC3)cc2)n1 [Example 155],–,–,8.01,7.86
O=C(NO)C1(S(=O)(=O)c2ccc(OCCOc3cccc(-c4ccccc4)c3)cc2)CCOCC1 [Example 157],–,–,8.46,6.74
CC(C)c1ccc(-c2cccc(CCCOc3ccc(S(=O)(=O)C4(C(=O)NO)CCOCC4)cc3)c2)cc1 [Example 160],–,–,6.30,< 5.00
O=C(NO)C1(S(=O)(=O)c2ccc(OCCCc3cccc(-c4cccc(F)c4)c3)cc2)CCOCC1 [Example 161],–,–,8.59,6.00
O=C(NO)C1(S(=O)(=O)c2ccc(OCCCc3cccc(-c4ccccc4Cl)c3)cc2)CCOCC1 [Example 162],–,–,7.81,5.80
O=C(NO)C1(S(=O)(=O)c2ccc(OCCCc3cccc(-c4ccccc4F)c3)cc2)CCOCC1 [Example 163],–,–,8.60,5.86
Cc1ccccc1-c1cccc(CCCOc2ccc(S(=O)(=O)C3(C(=O)NO)CCOCC3)cc2)c1 [Example 164],–,–,7.70,5.97
Cc1ccc(-c2cccc(CCCOc3ccc(S(=O)(=O)C4(C(=O)NO)CCOCC4)cc3)c2)cc1C [Example 165],–,–,6.83,5.47
COCCN1CCC(C(=O)NO)(S(=O)(=O)c2ccc(OCCCc3nc(-c4ccc(CC(C)C)cc4)no3)cc2)CC1 [Example 175],–,–,8.85,6.36
COCCN1CCC(C(=O)NO)(S(=O)(=O)c2ccc(OCCCc3nnc(-c4ccccc4C(F)(F)F)o3)cc2)CC1 [Example 178],–,–,8.11,7.55
